Measurements from US8597666B2, “Compressed solid dosage form manufacturing process well-suited for use with drugs of low aqueous solubility and compressed solid dosage forms made thereby” (Teva Pharmaceutical Industries, Ltd., priority 2004, dated 2013).
Counter-ions that a name gives are not always drawn.

What was measured:
[1] = Particle size distribution by laser light scattering (Malvern Mastersizer S); assay type: physicochemical; settings: raloxifene hydrochloride used in Formulations 1-4; mean equivalent spherical diameter
Source text: All particle sizes herein refer to the mean equivalent spherical diameter measured by laser light scattering techniques. Thus, the notation “d(0.5) greater than about 35 μm” means that 50% of the particles by volume have a mean equivalent spherical diameter of more than about 35 μm, as measured by laser light scattering. The laser light scattering measurement instrument used to measure the particle size distributions in the Examples was a Malvern Mastersizer® S. The dissolution profile was generated by testing in either 900 mL or 2 L of a 0.1% aqueous polysorbate 80 solution, using paddle apparatus (USP Apparatus II) at 50 rpm at 37° C.

[2] = starch content increased from 5 to 20%; tablets made by double compression; cited from earlier work

Compound | particle size d(0.5) [1] [μm] | particle size d(0.9) [1] [μm] | increase in rate of dissolution of salicylic acid from tablets [2]
O=C(c1ccc(OCCN2CCCCC2)cc1)c1c(-c2ccc(O)cc2)sc2cc(O)ccc12 [raloxifene hydrochloride] | 38.8 | 90.4 | –
O=C(O)c1ccccc1O [salicylic acid] | – | – | three fold
